Test results as given in patent US20110070329A1, “1-tert-Butylcyclohexanecarboxamide and uses thereof as cooling compounds” (priority 2009, published 2011).
“Also recorded” adds a separate entry of the source.

Columns and labels:
[1] = Flavor evaluation, tasted in water at 10 ppm
Source text: After expectorating, cooling began to build over time. The residual cooling (approx. five minutes) after expectorating earned a rating of 4 while when the cooler was in mouth, it was rated a 1 (on a scale of 1 to 9) when tasted in water at 10 ppm.

[2] = Chewing gum evaluation by trained descriptive analysis panel; conditions: level 0.20%
Experimental: The following gum base formulation was prepared: […]
Structure III by itself at levels detailed in the Table III was blended with the gum base in a Sigma mixer. The resultant chewing gum blend was then manufactured into strips 1 inch in width and 0.1 inches in thickness. These strips were cut into lengths of 3 inches each.
Samples were profiled by a highly trained descriptive analysis panel. The ballot consisted of the following terms: Total impact, total mint, cooling-mouth closed, cooling—breath in, nasal cooling—breathe in, throat irritation, bitterness, tongue irritation, numbing. Each attribute was rated at discrete time points including 1 minute, 3 minutes, 5 minutes, 10 minutes, 20 minutes, and 30 minutes.

[3] = Evaluation of cooler mixed with fondant
Source text: In this example, Structure III was mixed with a fondant, commercially available from Confectionary House, Troy, N.Y., at levels listed in Table 1.

Structure (SMILES) | flavor properties when tasted in water [1] | Time and Evaluation (chewing gum) ([2]; 0-1 minute) | Time and Evaluation (chewing gum) ([2]; 1-3 minutes) | Time and Evaluation (chewing gum) ([2]; 3-5 minutes) | Time and Evaluation (chewing gum) ([2]; 5-10 minutes) | Time and Evaluation (chewing gum) ([2]; 10-20 minutes) | Time and Evaluation (chewing gum) ([2]; 20-30 minutes) | residual cooling rating after expectorating ([1]; approx. five minutes after expectorating, scale of 1 to 9) | cooling rating when the cooler was in mouth ([1]; in mouth, scale of 1 to 9) | COMMENTS (cooling evaluation in fondant) ([3]; 50 ppm) | COMMENTS (cooling evaluation in fondant) ([3]; 100 ppm)
CC(C)(C)C1(C(=O)Nc2ccc(CC#N)cc2)CCCCC1 [Structure I, 1-tert-butyl-N-[4-(cyanomethyl)phenyl]cyclohexanecarboxamide] | bitter upfront, intense cooling upon expectorating | – | – | – | – | – | – | – | – | – | –
CC(C)(C)C1(C(=O)NCCc2ccccn2)CCCCC1 [Structure II, 1-tert-butyl-N-[2-(pyridine-2-yl)ethyl]cyclohexanecarboxamide] | honey, cream soda, slightly bitter, cooling flavor properties after about thirty seconds | – | – | – | – | – | – | – | – | – | –
CC(C)(C)C1(C(=O)NCc2ccccn2)CCCCC1 [Structure III, 1-tert-butyl-N-[(pyridine-2-yl)methyl]cyclohexanecarboxamide] | did not have much cooling except on breath-in. After expectorating, cooling began to build over time | Sweet, citrus. Not cooling slightly bitter | Cooling is perceivable, but weak. | bitterness., cooling very weak; also recorded: More cooling. Cooling when breathing. Little | Cooling is all over the mouth. Some bitterness; also recorded: is perceivable, very slight cooling again very; also recorded: weak | Cooling is all over the mouth but not very; also recorded: intensive., little to no cooling | More bitterness is perceivable. Cooling is; also recorded: moderate and slowly starting to decline; also recorded: little to no cooling | 4 | 1 | Slight cooling but quick onset, fills mouth | Quick onset slight bitterness perceived
